Tests used:
NCI/ADR-RES = test: Growth inhibition of human NCI/ADR-RES cells incubated for 48 hrs by sulforhodamine B assay; type: functional, cell-based
Hs-578T = test: Growth inhibition of human Hs578T cells assessed as cell growth at 100 uM incubated for 48 hrs by sulforhodamine B assay relative to control; type: functional; details: read-out: Activity
A549 = test: Growth inhibition of human A549/ATCC cells assessed as cell growth at 1 uM incubated for 48 hrs by sulforhodamine B assay relative to control; type: functional; details: A549, 48 h, read-out: Activity
NCI-H522 = test: Growth inhibition of human NCI-H522 cells assessed as cell growth at 0.01 uM incubated for 48 hrs by sulforhodamine B assay relative to control; type: functional; details: NCI-H522, 48 h, read-out: Activity
HCT-15 = test: Growth inhibition of human HCT15 cells assessed as cell growth at 0.01 uM incubated for 48 hrs by sulforhodamine B assay relative to control; type: functional; details: HCT-15, 48 h, read-out: Activity
UACC-257 = test: Growth inhibition of human UACC257 cells incubated for 48 hrs by sulforhodamine B assay; type: functional, cell-based; details: UACC-257, 48 h
IGROV-1 = test: Growth inhibition of human IGROV1 cells assessed as cell growth at 1 uM incubated for 48 hrs by sulforhodamine B assay relative to control; type: functional; details: IGROV-1, 48 h, read-out: Activity
HOP-92 = test: Growth inhibition of human HOP92 cells assessed as cell growth at 10 uM incubated for 48 hrs by sulforhodamine B assay relative to control; type: functional; details: HOP-92, 48 h, read-out: Activity
DU-145 = test: Growth inhibition of human DU145 cells assessed as cell growth at 0.01 uM incubated for 48 hrs by sulforhodamine B assay relative to control; type: functional; details: DU-145, 48 h, read-out: Activity
COLO 205 = test: Growth inhibition of human COLO205 cells incubated for 48 hrs by sulforhodamine B assay; type: functional, cell-based; details: COLO 205, 48 h
LOX IMVI = test: Growth inhibition of human LOXIMVI cells incubated for 48 hrs by sulforhodamine B assay; type: functional
HOP-62 = test: Growth inhibition of human HOP62 cells assessed as cell growth at 1 uM incubated for 48 hrs by sulforhodamine B assay relative to control; type: functional; details: HOP-62, 48 h, read-out: Activity
[1] = read-out: LC50 (the source's name)
[2] = read-out: pLC50 (the source's name) (converted)

Compound	GI50 (NCI/ADR-RES; read-out: GI50)	CC50 (NCI/ADR-RES; [1])	TGI (NCI/ADR-RES; read-out: TGI)	GI50 (NCI/ADR-RES; read-out: pGI50 (converted))	CC50 (NCI/ADR-RES; [2])	TGI (NCI/ADR-RES; read-out: pTGI (converted))	growth at 100 µM (Hs-578T)	growth at 1 µM (A549)	growth at 0.01 µM (NCI-H522)	growth at 0.01 µM (HCT-15)	GI50 (UACC-257; read-out: GI50)	CC50 (UACC-257; [1])	TGI (UACC-257; read-out: TGI)	GI50 (UACC-257; read-out: pGI50 (converted))	CC50 (UACC-257; [2])	TGI (UACC-257; read-out: pTGI (converted))	growth at 1 µM (IGROV-1)	growth at 0.01 µM (DU-145)	GI50 (COLO 205; read-out: GI50)	CC50 (COLO 205; [1])	further results
O=C(Nc1cccc(-n2cc(-c3ccncc3)c(-c3cc(O)cc(Cl)c3)n2)c1)Nc1ccc(Cl)c(Cl)c1	3.21 µM	> 100 µM	> 100 µM	3.24 µM	> 100 µM	> 100 µM	9%	75%	88%	59%	1960 nM	9.5 µM	43 µM	1950 nM	9.55 µM	4.27 µM	95%	108%	1960 nM	7.29 µM	growth at 10 µM (HOP-92): -30.5%; TGI (COLO 205; read-out: TGI): 37.8 µM; GI50 (COLO 205; read-out: pGI50 (converted)): 1950 nM; CC50 (COLO 205; [2]): 7.24 µM; TGI (COLO 205; read-out: pTGI (converted)): 3.8 µM; GI50 (LOX IMVI; read-out: GI50): 1560 nM; TGI (LOX IMVI; read-out: TGI): 41 µM; GI50 (LOX IMVI; read-out: pGI50 (converted)): 1860 nM; TGI (LOX IMVI; read-out: pTGI (converted)): 4.17 µM; growth at 1 µM (HOP-62): 97%
O=C(Nc1cccc(-n2cc(-c3ccncc3)c(-c3cc(O)cc(Cl)c3)n2)c1)Nc1ccc(Cl)c(C(F)(F)F)c1	3.41 µM	> 100 µM	23.6 µM	3.39 µM	> 100 µM	23.4 µM	1%	81%	56%	93%	1990 nM	19.2 µM	63.4 µM	2000 nM	19.1 µM	5.37 µM	113%	103%	2250 nM	15.9 µM	TGI (COLO 205; read-out: TGI): 51.7 µM; GI50 (COLO 205; read-out: pGI50 (converted)): 2820 nM; CC50 (COLO 205; [2]): 19.1 µM; TGI (COLO 205; read-out: pTGI (converted)): 5.13 µM; GI50 (LOX IMVI; read-out: GI50): 1970 nM; CC50 (LOX IMVI; [1]): 95.5 µM; TGI (LOX IMVI; read-out: TGI): 43.6 µM; GI50 (LOX IMVI; read-out: pGI50 (converted)): 1950 nM; CC50 (LOX IMVI; [2]): 9.55 µM; TGI (LOX IMVI; read-out: pTGI (converted)): 4.37 µM; growth at 1 µM (HOP-62): 96%
COc1cc(Cl)cc(-c2nn(-c3cccc(NC(=O)c4ccc(N5CCOCC5)c(C(F)(F)F)c4)c3)cc2-c2ccncc2)c1	5.17 µM	> 100 µM	> 100 µM	6.17 µM	> 100 µM	> 100 µM	42%	52%	94%	94%	2170 nM	> 100 µM	69.1 µM	21900 nM	> 100 µM	69.2 µM	104%	108%	2220 nM	> 100 µM	TGI (COLO 205; read-out: TGI): > 100 µM; GI50 (COLO 205; read-out: pGI50 (converted)): 22400 nM; CC50 (COLO 205; [2]): > 100 µM; TGI (COLO 205; read-out: pTGI (converted)): > 100 µM; GI50 (LOX IMVI; read-out: GI50): 1580 nM; CC50 (LOX IMVI; [1]): > 100 µM; TGI (LOX IMVI; read-out: TGI): > 100 µM; GI50 (LOX IMVI; read-out: pGI50 (converted)): 15800 nM; CC50 (LOX IMVI; [2]): > 100 µM; TGI (LOX IMVI; read-out: pTGI (converted)): > 100 µM; growth at 1 µM (HOP-62): 107%
COc1cc(Cl)cc(-c2nn(-c3cccc(NC(=O)Nc4cccc(C(F)(F)F)c4)c3)cc2-c2ccncc2)c1	1.65 µM	> 100 µM	75.1 µM	1.66 µM	> 100 µM	7.76 µM	21%	43%	95%	92%	1750 nM	21.5 µM	45.5 µM	1740 nM	21.4 µM	4.68 µM	85%	101%	1530 nM	65.5 µM	growth at 10 µM (HOP-92): -27.3%; TGI (COLO 205; read-out: TGI): 31.7 µM; GI50 (COLO 205; read-out: pGI50 (converted)): 1510 nM; CC50 (COLO 205; [2]): 6.61 µM; TGI (COLO 205; read-out: pTGI (converted)): 3.16 µM; GI50 (LOX IMVI; read-out: GI50): 1510 nM; CC50 (LOX IMVI; [1]): 82.8 µM; TGI (LOX IMVI; read-out: TGI): 70.4 µM; GI50 (LOX IMVI; read-out: pGI50 (converted)): 1820 nM; CC50 (LOX IMVI; [2]): 83.2 µM; TGI (LOX IMVI; read-out: pTGI (converted)): 7.08 µM; growth at 1 µM (HOP-62): 85%
COc1cc(Cl)cc(-c2nn(-c3cccc(NC(=O)Nc4ccc(Cl)c(Cl)c4)c3)cc2-c2ccncc2)c1	2.34 µM	> 100 µM	24.9 µM	2.34 µM	> 100 µM	25.1 µM	28%	82%	95%	93%	1540 nM	> 100 µM	61.9 µM	1860 nM	> 100 µM	5.25 µM	102%	101%	1710 nM	6.4 µM	TGI (COLO 205; read-out: TGI): 33.1 µM; GI50 (COLO 205; read-out: pGI50 (converted)): 1700 nM; CC50 (COLO 205; [2]): 6.46 µM; TGI (COLO 205; read-out: pTGI (converted)): 3.31 µM; GI50 (LOX IMVI; read-out: GI50): 2910 nM; CC50 (LOX IMVI; [1]): > 100 µM; TGI (LOX IMVI; read-out: TGI): 12.4 µM; GI50 (LOX IMVI; read-out: pGI50 (converted)): 2880 nM; CC50 (LOX IMVI; [2]): > 100 µM; TGI (LOX IMVI; read-out: pTGI (converted)): 30.9 µM; growth at 1 µM (HOP-62): 91%
COc1cc(Cl)cc(-c2nn(-c3cccc(NC(=O)c4cc(C(F)(F)F)cc(C(F)(F)F)c4)c3)cc2-c2ccncc2)c1	–	–	–	–	–	–	–	–	–	–	–	–	–	–	–	–	–	–	–	–	growth at 10 µM (HOP-92): 46.8%

From ChEMBL document CHEMBL4308841, “Synthesis, in vitro antiproliferative activity, and kinase inhibitory effects of pyrazole-containing diarylureas and diarylamides” (Eur J Med Chem, 2018)
